From PubChem BioAssay (NCI)
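These data come from cells grown in 96-well plates and exposed to compound for 48 hours at five concentrations. At the GI50, growth is halved. TGI is the concentration that stops growth completely.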

Experiments:
Assay in all cases: growth of human tumour cells (NCI), 48 h
HCT-15 colon = system: HCT-15 colon
M14 melanoma = system: M14 melanoma
BT-549 breast = system: BT-549 breast
SW-620 colon = system: SW-620 colon
SN12C renal = system: SN12C renal
SK-OV-3 ovarian = system: SK-OV-3 ovarian
MOLT-4 leukemia = system: MOLT-4 leukemia
SK-MEL-28 melanoma = system: SK-MEL-28 melanoma
MCF7 breast = system: MCF7 breast
IGROV1 ovarian = system: IGROV1 ovarian

SMILES	GI50 (HCT-15 colon) [µM]	TGI (HCT-15 colon) [µM]	GI50 (M14 melanoma) [µM]	TGI (M14 melanoma) [µM]	GI50 (BT-549 breast) [µM]	TGI (BT-549 breast) [µM]	GI50 (SW-620 colon) [µM]	TGI (SW-620 colon) [µM]	GI50 (SN12C renal) [µM]	TGI (SN12C renal) [µM]	GI50 (SK-OV-3 ovarian) [µM]	TGI (SK-OV-3 ovarian) [µM]	GI50 (MOLT-4 leukemia) [µM]	TGI (MOLT-4 leukemia) [µM]	GI50 (SK-MEL-28 melanoma) [µM]	TGI (SK-MEL-28 melanoma) [µM]	GI50 (MCF7 breast) [µM]	TGI (MCF7 breast) [µM]	GI50 (IGROV1 ovarian) [µM]	TGI (IGROV1 ovarian) [µM]
N#Cc1c(C(=O)c2ccccc2)cnn1-c1ccccc1	> 25	> 25	> 25	> 25	> 25	> 25	> 25	> 25	> 25	> 25	> 25	> 25	> 25	> 25	> 25	> 25	> 25	> 25	> 25	> 25
CSc1nc2c(c(=O)[nH]1)N=C1c3ccccc3C(=O)C1C(c1ccc(F)cc1)N2 (centres undefined)	4.57	> 100	6.29	> 100	8.5	41.2	4.48	70.7	28.4	> 100	14.1	50.4	19.5	> 100	9.03	62.4	5.18	62.4	11.3	> 100
O=C(/C=C/c1ccc(OCC(=O)N2CCN(c3ccccc3)CC2)cc1)c1ccc(Cl)cc1	–	> 100	–	> 100	–	> 85.6	–	> 100	–	> 100	–	73.8	–	> 100	–	> 100	–	> 100	–	> 100
CCCC[C@H]1C(=O)O[C@H](C)[C@H](NC(=O)c2cccc(NC=O)c2O)C(=O)O[C@@H](C)[C@@H]1OC(=O)CC(C)C	–	22	–	47.7	–	36	–	68.3	–	40.7	–	54.4	–	53	–	72.9	–	25.8	–	41.9
C=C1C(=O)O[C@H]2[C@H]1CC/C(COC(=O)NCc1cc3ccccc3[nH]1)=C\CC[C@@]1(C)O[C@@H]21	1.54	3.32	1.74	3.85	1.56	3.14	1.72	3.84	1.45	3.17	13.8	26.8	2.43	7.64	1.74	3.36	1.45	3.26	1.46	3.46
CC(C)(C)N1CCC1C(N)=O (centres undefined)	> 100	> 100	> 100	> 100	> 100	> 100	> 100	> 100	> 100	> 100	> 100	> 100	> 100	> 100	> 100	> 100	> 100	> 100	> 100	> 100
C=C1[C@@H](C)[C@H]2[C@H](Cc3ccccc3)NC(=O)[C@]23OC(=O)/C=C/[C@H](O)CCC[C@@H](C)C/C=C/[C@H]3[C@@H]1O	–	93.2	–	> 100	–	> 64.3	–	> 100	–	> 100	–	> 100	–	72.3	–	> 100	–	> 100	–	78.9
COc1ccc(-n2c(SCc3cc(OC)c(OC)c(OC)c3)nc3ccc(C)cc3c2=O)c(OC)c1	4.2	> 100	2.7	8.55	4.31	> 100	4.49	> 100	5.1	> 100	4.96	> 100	3.15	> 100	5.79	> 100	3.23	> 100	7.2	> 100
C(=N\Nc1ccccn1)/c1ccccn1	0.368	> 100	0.313	57.2	1.62	> 100	0.557	> 100	0.443	> 100	0.393	–	0.392	> 100	0.816	> 100	0.401	> 100	0.355	> 100
O=C(O)c1cc2ccccc2c(O)c1O	–	42.6	–	16.3	–	30	–	34.8	–	31.5	–	29	–	> 66.8	–	18.1	–	28.4	–	34.7
Cc1c(C#N)cccc1-c1cc(-c2cn(Cc3cccc(C(C)(C)O)n3)nn2)nc(N)n1	23.2	> 100	21.7	> 100	14.9	69.1	51.3	> 100	17.2	> 100	48.8	> 100	21.3	> 100	39.1	> 100	22.4	> 100	14.4	> 100
CC(=O)Nc1ccc(/C=C/[N+](=O)[O-])cc1	–	> 19.6	–	7.01	–	12.4	–	11	–	9.8	–	24.1	–	4.37	–	4.13	–	9.72	–	7.35
NC(=O)c1cnc(N[C@@H]2CCCC[C@@H]2N)nc1Nc1cccc(-n2nccn2)c1	3.81	14.9	2.11	6.14	6.37	19	3.81	13.4	4.13	17.6	4.14	15.1	2.94	12.7	3.26	11.3	2.33	10.2	4.01	14.3
N#CC(=S)Nc1cccc(Cl)c1	–	> 100	–	> 100	–	> 100	–	> 100	–	> 100	–	87.9	–	> 100	–	> 100	–	> 100	–	29.4
O=C1CCC(Cc2ccc(Cl)cc2Cl)C(=O)N1 (centres undefined)	–	> 100	–	> 100	–	> 100	–	> 100	–	> 100	–	> 100	–	> 100	–	> 100	–	> 100	–	> 100
